Data published in US5416191A, “Bradykinin antagonists” (Cortech, Inc., priority 1993, dated 1995).
Peptide text beside a SMILES is read from it.

Legend:
[1] = target: T1, bradykinin receptor of the B2 class (rat uterus) (Rattus norvegicus, UniProt P25023); experiment: Rat uterus (RU) in vitro, antagonism of bradykinin; details: Table C, rat uterus
T1 construct: concentration effect curves to bradykinin (BK) on rat uterus in vitro; from tissue; host or cells: rat uterus
T1 sequence (P25023 1-396): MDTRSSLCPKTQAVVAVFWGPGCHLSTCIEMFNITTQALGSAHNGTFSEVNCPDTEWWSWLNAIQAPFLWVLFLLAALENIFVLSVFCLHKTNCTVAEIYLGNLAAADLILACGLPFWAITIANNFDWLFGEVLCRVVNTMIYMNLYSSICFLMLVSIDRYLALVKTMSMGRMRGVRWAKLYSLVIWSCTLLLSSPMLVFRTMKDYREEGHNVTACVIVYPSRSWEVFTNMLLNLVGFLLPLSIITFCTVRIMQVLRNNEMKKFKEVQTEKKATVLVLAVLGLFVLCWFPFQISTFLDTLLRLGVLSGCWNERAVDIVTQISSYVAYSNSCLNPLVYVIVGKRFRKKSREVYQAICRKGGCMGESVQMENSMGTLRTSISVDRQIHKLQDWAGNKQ
In short: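 Isolated rat uterus; bradykinin antagonism expressed as pA2, the negative log molar antagonist concentration that halves agonist potency. After the highest antagonist concentration, tissues were washed extensively and percent recovery was recorded.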

[2] = target: T2, bradykinin receptor of the B2 class (guinea-pig ileum) (Cavia porcellus, UniProt O70526); details: Table B; Cys position scan, monomers and BMH dimers
T2 sequence (O70526 1-372): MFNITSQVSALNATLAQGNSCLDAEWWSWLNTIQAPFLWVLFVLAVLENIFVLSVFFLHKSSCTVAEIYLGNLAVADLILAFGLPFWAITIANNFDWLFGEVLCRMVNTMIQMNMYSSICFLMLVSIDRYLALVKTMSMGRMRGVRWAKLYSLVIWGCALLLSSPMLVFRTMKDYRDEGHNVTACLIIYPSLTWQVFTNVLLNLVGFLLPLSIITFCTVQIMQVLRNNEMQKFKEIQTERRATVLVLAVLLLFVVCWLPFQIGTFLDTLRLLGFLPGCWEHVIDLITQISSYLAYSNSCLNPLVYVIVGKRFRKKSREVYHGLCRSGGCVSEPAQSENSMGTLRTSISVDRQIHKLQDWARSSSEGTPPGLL

Compound	pA2 DIMER [1]	pA2 GUINEA PIG ILEUM [2]	pA2 MONOMER ([1]; P.A. = Partial Agonist)
CC(C)C[C@H](NC(=O)[C@@H](Cc1ccccc1)NC(=O)[C@H](CO)NC(=O)[C@H](Cc1ccccc1)NC(=O)CNC(=O)[C@@H]1C[C@@H](O)CN1C(=O)[C@@H]1CCCN1C(=O)[C@H](CCCNC(=N)N)NC(=O)[C@H](N)CCCNC(=N)N)C(=O)N[C@@H](CSC1CC(=O)N(CCCCCCN2C(=O)CC(SC[C@H](NC(=O)[C@H](CC(C)C)NC(=O)[C@@H](Cc3ccccc3)NC(=O)[C@H](CO)NC(=O)[C@H](Cc3ccccc3)NC(=O)CNC(=O)[C@@H]3C[C@@H](O)CN3C(=O)[C@@H]3CCCN3C(=O)[C@H](CCCNC(=N)N)NC(=O)[C@H](N)CCCNC(=N)N)C(=O)O)C2=O)C1=O)C(=O)O (stereo partly drawn) [CP-0160] (HELM PEPTIDE1{[dR].R.P.[Hyp].G.F.S.[dF].L.C}|PEPTIDE2{[dR].R.P.[Hyp].G.F.S.[dF].L.C}|CHEM1{[O=C1CC([*:1])C(=O)N1CCCCCCN1C(=O)CC([*:2])C1=O]}$PEPTIDE1,CHEM1,10:R3-1:R1|PEPTIDE2,CHEM1,10:R3-1:R2$$$V2.0)	Inactive	Inactive	–
CC(C)C[C@H](NC(=O)[C@@H](Cc1ccccc1)NC(=O)[C@H](CO)NC(=O)[C@H](Cc1ccccc1)NC(=O)[C@@H](CS)NC(=O)[C@@H]1C[C@@H](O)CN1C(=O)[C@@H]1CCCN1C(=O)[C@H](CCCNC(=N)N)NC(=O)[C@H](N)CCCNC(=N)N)C(=O)N[C@@H](CCCNC(=N)N)C(=O)O [CP-0173] (HELM PEPTIDE1{[dR].R.P.[Hyp].[dC].F.S.[dF].L.R}$$$$V2.0)	–	Inactive	Inactive
CC(C)C[C@H](NC(=O)[C@@H](Cc1ccccc1)NC(=O)[C@H](CO)NC(=O)[C@H](Cc1ccccc1)NC(=O)[C@@H](CSC1CC(=O)N(CCCCCCN2C(=O)CC(SC[C@@H](NC(=O)[C@@H]3C[C@@H](O)CN3C(=O)[C@@H]3CCCN3C(=O)[C@H](CCCNC(=N)N)NC(=O)[C@H](N)CCCNC(=N)N)C(=O)N[C@@H](Cc3ccccc3)C(=O)N[C@@H](CO)C(=O)N[C@H](Cc3ccccc3)C(=O)N[C@@H](CC(C)C)C(=O)N[C@@H](CCCNC(=N)N)C(=O)O)C2=O)C1=O)NC(=O)[C@@H]1C[C@@H](O)CN1C(=O)[C@@H]1CCCN1C(=O)[C@H](CCCNC(=N)N)NC(=O)[C@H](N)CCCNC(=N)N)C(=O)N[C@@H](CCCNC(=N)N)C(=O)O (stereo partly drawn) [CP-0203] (HELM PEPTIDE1{[dR].R.P.[Hyp].[dC].F.S.[dF].L.R}|PEPTIDE2{[dR].R.P.[Hyp].[dC].F.S.[dF].L.R}|CHEM1{[O=C1CC([*:1])C(=O)N1CCCCCCN1C(=O)CC([*:2])C1=O]}$PEPTIDE1,CHEM1,5:R3-1:R1|PEPTIDE2,CHEM1,5:R3-1:R2$$$V2.0)	Inactive	Inactive	–
